Holding throughout (assay): inhibition of tumour cell growth, NCI panel, 48 h
For assay [1], the system named is M19-MEL melanoma.
The test system of assay [2] is SNB-19 CNS.
Assay [3] has as its system SNB-78 CNS.
For assay [4], the system named is DMS 273 small cell lung.
The test system of assay [5] is NCI-H460 lung.
For assay [6], the system named is DMS 114 small cell lung.
Assay [7] concerns LOX IMVI melanoma.

Where “and” joins values, the source holds several entries; their conditions need not be identical. Identical values can stand only once.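 Five compound concentrations were applied to cells in 96-well plates for 48 hours; endpoints were derived by simple linear interpolation of the resulting dose-response curve. The concentration for 50% growth inhibition is given as GI50. The concentration for full growth arrest is given as TGI.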

For `CCC[CH2][Sn]([CH2]CCC)([O]C(=O)c1c(F)cccc1F)[O]C(=O)c1c(F)cccc1F`, the GI50 in assay [1] was 0.364 µM; in assay [2], 1.29 µM; in assay [3] it was 0.333 µM; in assay [4], 1.07 µM; in assay [5], 1.54 µM; in assay [6], 0.214 µM. In addition, the GI50 in assay [7] is 0.353 µM. The TGI in assay [1] is 1.43 µM; in assay [2], 2.56 µM; in assay [3] it was 1.47 µM; in assay [4] it was 2.27 µM; in assay [5], 2.9 µM; in assay [6], 0.602 µM. This compound also came in with a TGI in assay [7] of 1.41 µM.
As to `CCOc1ccccc1NC(=O)CCC(=O)OC`, the TGI in assay [1], in assay [2], in assay [3], in assay [4], in assay [5] and in assay [6] was > 100 µM in each case. Further, the TGI in assay [7] is > 31.6 µM.
As to `CC1=CC2CC(C)=C(CC[C@]3(C)CC[C@H]([C@@H](C)C(=O)O)OO3)C(C)(C)C2CC1` (stereo partly specified), the TGI in assay [1] amounted to 3.05 µM; in assay [2], 3.08 µM; in assay [3], 4.09 µM; in assay [4], 1.09 µM; in assay [5], 0.393 µM; in assay [6] it was 0.973 µM. Further, the TGI in assay [7] came out at 0.207 µM.
As to `COc1cc(CCc2cccnc2)cc(OC)c1OC`, the TGI in assay [1], in assay [2], in assay [3], in assay [4], in assay [5] and in assay [6] was > 100 µM each time. For the same compound, the TGI in assay [7] was > 100 µM.
Turning to `O=C(CC1=Nc2nnc(-c3nnc4n3C(=O)C(CC(=O)c3cccnc3)=N4)n2C1=O)c1cccnc1`, the TGI in assay [1], in assay [2], in assay [3], in assay [4], in assay [5] and in assay [6] was > 100 µM throughout. In assay [7], the TGI is > 100 µM.
Consider `O=C1OC(=O)c2c1c(-c1ccccc1)cn2-c1ccc(Cl)cc1`, for which the TGI in assay [1], in assay [2], in assay [3], in assay [4], in assay [5] and in assay [6] was > 100 µM throughout. The TGI in assay [7] is > 100 µM.
On to `CC1[C@@H]2[C@@H](C=C3C4CCC5Cc6nc7c(nc6C[C@@]5(C)C4C[C@H](O)[C@]32CO)CC2CCC3C4=C[C@H]5O[C@@]6(O[C@@](C)(CO)C[C@@H]6O)C(C)[C@@]5(O)[C@]4(C)[C@@H](O)CC3[C@]2(C)C7)O[C@]12CCC(C)(C)O2` (stereo partly specified), for which the GI50 in assay [1] is 2.13 µM; in assay [2], 0.0264 µM; in assay [3] it was < 0.000365 µM; in assay [4], < 0.000365 µM; in assay [5], 0.000713 µM; in assay [7], 0.017 µM and 0.0071 µM. Also, the TGI in assay [1] was > 3.65 µM; in assay [2], 0.603 µM and > 3.65 µM; in assay [3] it was 0.34 µM and 0.642 µM; in assay [5], 0.132 µM and 0.104 µM; in assay [6], > 3.65 µM; in assay [7], > 3.65 µM.

Source of the values: PubChem BioAssay (NCI).
